In brackets after ≈: the same amount, converted by molar mass.

Experimental findings from PMC6327983, “Discovery of cyanopyridine scaffold as novel indoleamine-2,3-dioxygenase 1 (IDO1) inhibitors through virtual screening and preliminary hit optimisation” (Journal of Enzyme Inhibition and Medicinal Chemistry, 2019) are described below.

In data set [1] the target is T1, IDO1 (Homo sapiens, UniProt P14902).
T1 construct: made in house
Briefly: Enzyme-based IDO1 activity assay. Type of data set: biochemical. Conditions: purified human IDO1 enzyme; read-out: Enzymatic assay IC50 (hIDO1).

The nature of data set [2]: Water solubility evaluation (Avdeef–Bucher potentiometric titration). The format is physicochemical. Conditions: thermodynamic from solid. The protocol: The aqueous solubility was determined on a Gemini Profiler instrument (pION) by the “goldstandard” Avdeef–Bucher potentiometric titration method[46]^,[47].
In data set [3] the target is T1, IDO1. Briefly: Determination of the inhibition type (rate V against enzyme amount E). The format is biochemical. Conditions: 1 µM inhibitor, 50 µM L-tryptophan. How it is done: The standard assay mixture (1 ml) contained 50 mM potassium phosphate buffer (pH = 6.5), 25 mM neutralised ascorbic acid, 10 µM methylene blue, 100 µg/mL catalase, 50 µM L-Trp, DMSO (0.5%), and eight different concentrations of IDO1. In addition, 1 µM LBJ-10 solution was added into the mixture. The reaction, at 37 °C, was started by the addition of the substrate and terminated after 60 min by adding 200 µL of 30% (w/v) trichloroacetic acid and further incubated at 50 °C for 30 min to hydrolyse N-formylkynurenine to produce kynurenine. After centrifugation at 12,000 rpm for 15 min at 20 °C, kynurenine in the supernatant (1 mL) was measured by a HPLC system with a reversed phase column (4.6 mm × 15 cm) of GL Sciences Inc. The mobile phase was 10 mM ammonium acetate containing 10% (w/v) methanol, and kynurenine was detected by absorbance at 360 nm. All determinations were carried out in duplicate. The data presented are average values. Based on the results of the activity assay, a function of rate ([V]) against enzyme amount ([E]) was proposed.
We also carried the additional experiment to determine the reversibility of compound LBJ-10. Detailed kinetics analysis was performed on LBJ-10 based on plotting a function of the rate (V) against the enzyme amount ([E]) (Figure 12(A))[58]^,[59]. […]

In a further data set the target is T2, ferric IDO1 (Homo sapiens, UniProt P14902).
T2 construct: made in house
As to the kind of experiment: Measurement of IDO1 absorbance spectra (UV–visible). The format is binding. Conditions: 20 µM compound, 5 µM IDO1, phosphate buffer pH 6.5; 406 nm in absence of compound. The protocol: Absorbance spectra (250–480 nm) were measured immediately after addition of compound LBJ-10 (20 µM in 0.5% DMSO) to IDO1 (5 µM) in phosphate buffer (pH 6.5) using a Tecan Safire2 microplate reader.
A UV–visible spectra study was performed to evaluate the binding of the representative compound LBJ-10 (Figure 11). The absorption spectrum of the haeme group is highly sensitive to the changes in the polarity of haeme surrounding upon the ligand or substrate binding, leading to the change of spectra properties of the haeme. The UV–visible spectra of ferric IDO1 was measured in the presence and absence of compound LBJ-10.

T1 sequence (P14902 whole entry): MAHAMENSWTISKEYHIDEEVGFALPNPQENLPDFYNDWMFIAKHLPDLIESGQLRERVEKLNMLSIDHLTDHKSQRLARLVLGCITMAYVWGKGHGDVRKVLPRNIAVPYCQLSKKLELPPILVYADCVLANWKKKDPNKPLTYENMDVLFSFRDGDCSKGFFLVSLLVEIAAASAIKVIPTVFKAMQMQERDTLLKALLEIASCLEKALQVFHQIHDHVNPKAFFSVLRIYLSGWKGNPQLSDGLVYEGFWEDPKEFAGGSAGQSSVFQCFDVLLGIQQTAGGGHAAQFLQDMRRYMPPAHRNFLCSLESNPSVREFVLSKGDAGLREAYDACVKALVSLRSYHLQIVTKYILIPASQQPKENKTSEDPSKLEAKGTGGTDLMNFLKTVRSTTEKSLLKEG
T2 sequence (P14902 whole entry): as above

Consider `N#Cc1cccnc1SCC(=O)Nc1ccc(F)cc1` [LBJ-03, 2-((3-Cyanopyridin-2-yl)thio)-N-(4-fluorophenyl)acetamide], for which the melting point (in general, the temperature of the solid-liquid transition) was in the range of 198 to 201 °C. Besides, at IDO1 [1], the IC50 – broadly, the concentration that inhibits the measured activity by half – came out at 9.14 ± 0.38 µM. Further, the solubility – broadly, the concentration that dissolves in the medium under given conditions – in data set [2] stood at 75 µg/mL (≈ 261 µM).

For the compound `N#Cc1ccc(C(F)(F)F)nc1SCC(=O)Nc1ccc(F)c(Cl)c1` [LBJ-10, N-(3-chloro-4-fluorophenyl)-2-((3-cyano-6-(trifluoromethyl)pyridin-2-yl)thio) acetamide], on IDO1 [3], the “Inhibition type (reversibility)” value is “reversible inhibitor”. Also, the “Soret peak of ferric IDO1 in the presence of compound” value on ferric IDO1 worked out at 416 nm. The IC50 on IDO1 [1] is 0.84 ± 0.33 µM.
